Source: ChEMBL document CHEMBL5653615 (J Biol Chem, 2013)
Activity calls are given as the source filed them. The rule behind the calls is not given here.

Legend:
[1] = molecular target: T1, Homeodomain-interacting protein kinase 4 (Homo sapiens) (UniProt Q8NE63); assay: Inhibition of human HIPK4 at 500 nM by HotSpot assay relative to control
T1 sequence (whole entry): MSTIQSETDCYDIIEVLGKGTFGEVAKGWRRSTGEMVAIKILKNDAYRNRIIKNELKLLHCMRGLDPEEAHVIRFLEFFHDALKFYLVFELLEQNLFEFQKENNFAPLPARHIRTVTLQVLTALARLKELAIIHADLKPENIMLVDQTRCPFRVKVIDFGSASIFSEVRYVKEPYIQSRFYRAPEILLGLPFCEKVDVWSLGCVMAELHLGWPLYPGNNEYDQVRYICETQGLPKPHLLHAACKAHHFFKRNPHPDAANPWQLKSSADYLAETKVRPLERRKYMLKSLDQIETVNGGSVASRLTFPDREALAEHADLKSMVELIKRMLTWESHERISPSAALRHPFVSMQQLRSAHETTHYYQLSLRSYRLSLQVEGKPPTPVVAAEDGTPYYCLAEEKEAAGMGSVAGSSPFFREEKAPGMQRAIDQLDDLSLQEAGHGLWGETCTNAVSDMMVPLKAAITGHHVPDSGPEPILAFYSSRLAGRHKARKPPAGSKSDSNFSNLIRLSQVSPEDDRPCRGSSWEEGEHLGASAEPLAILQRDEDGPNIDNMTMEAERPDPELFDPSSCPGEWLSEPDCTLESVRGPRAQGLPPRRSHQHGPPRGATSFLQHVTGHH

[2] = molecular target: T2, Dual specificity tyrosine-phosphorylation-regulated kinase 2 (Homo sapiens) (UniProt Q92630); assay: Inhibition of human DYRK2 at 500 nM by HotSpot assay relative to control
T2 sequence (whole entry): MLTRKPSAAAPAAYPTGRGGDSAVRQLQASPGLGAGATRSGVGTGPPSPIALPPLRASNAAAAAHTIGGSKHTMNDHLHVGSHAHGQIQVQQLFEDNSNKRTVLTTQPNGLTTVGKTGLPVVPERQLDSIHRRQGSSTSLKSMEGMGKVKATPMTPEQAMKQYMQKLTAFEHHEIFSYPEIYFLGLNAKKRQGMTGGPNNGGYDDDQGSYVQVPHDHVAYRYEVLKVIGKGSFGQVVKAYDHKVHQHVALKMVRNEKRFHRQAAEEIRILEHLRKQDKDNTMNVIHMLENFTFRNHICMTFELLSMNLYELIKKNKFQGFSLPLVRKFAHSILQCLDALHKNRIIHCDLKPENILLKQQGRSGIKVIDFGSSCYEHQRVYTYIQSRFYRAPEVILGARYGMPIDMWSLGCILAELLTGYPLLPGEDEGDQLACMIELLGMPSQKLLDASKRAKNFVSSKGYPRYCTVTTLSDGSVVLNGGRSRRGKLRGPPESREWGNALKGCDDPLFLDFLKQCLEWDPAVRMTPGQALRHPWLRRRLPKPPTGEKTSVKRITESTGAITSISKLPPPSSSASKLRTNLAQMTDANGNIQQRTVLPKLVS

[3] = Inhibition of unphosphorylated human Insulin receptor (978 to 1283 residues) C981S mutant kinase domain expressed in baculovirus infected Sf9 cells incubated for 1 hr by [gamma-33P]ATP assay
[4] = molecular target: Ephrin type-A receptor 5 (Homo sapiens) (UniProt P54756); assay: Inhibition of human EPHA5 at 500 nM by HotSpot assay relative to control
Chain of Ephrin type-A receptor 5 (Homo sapiens) (P54756 whole entry): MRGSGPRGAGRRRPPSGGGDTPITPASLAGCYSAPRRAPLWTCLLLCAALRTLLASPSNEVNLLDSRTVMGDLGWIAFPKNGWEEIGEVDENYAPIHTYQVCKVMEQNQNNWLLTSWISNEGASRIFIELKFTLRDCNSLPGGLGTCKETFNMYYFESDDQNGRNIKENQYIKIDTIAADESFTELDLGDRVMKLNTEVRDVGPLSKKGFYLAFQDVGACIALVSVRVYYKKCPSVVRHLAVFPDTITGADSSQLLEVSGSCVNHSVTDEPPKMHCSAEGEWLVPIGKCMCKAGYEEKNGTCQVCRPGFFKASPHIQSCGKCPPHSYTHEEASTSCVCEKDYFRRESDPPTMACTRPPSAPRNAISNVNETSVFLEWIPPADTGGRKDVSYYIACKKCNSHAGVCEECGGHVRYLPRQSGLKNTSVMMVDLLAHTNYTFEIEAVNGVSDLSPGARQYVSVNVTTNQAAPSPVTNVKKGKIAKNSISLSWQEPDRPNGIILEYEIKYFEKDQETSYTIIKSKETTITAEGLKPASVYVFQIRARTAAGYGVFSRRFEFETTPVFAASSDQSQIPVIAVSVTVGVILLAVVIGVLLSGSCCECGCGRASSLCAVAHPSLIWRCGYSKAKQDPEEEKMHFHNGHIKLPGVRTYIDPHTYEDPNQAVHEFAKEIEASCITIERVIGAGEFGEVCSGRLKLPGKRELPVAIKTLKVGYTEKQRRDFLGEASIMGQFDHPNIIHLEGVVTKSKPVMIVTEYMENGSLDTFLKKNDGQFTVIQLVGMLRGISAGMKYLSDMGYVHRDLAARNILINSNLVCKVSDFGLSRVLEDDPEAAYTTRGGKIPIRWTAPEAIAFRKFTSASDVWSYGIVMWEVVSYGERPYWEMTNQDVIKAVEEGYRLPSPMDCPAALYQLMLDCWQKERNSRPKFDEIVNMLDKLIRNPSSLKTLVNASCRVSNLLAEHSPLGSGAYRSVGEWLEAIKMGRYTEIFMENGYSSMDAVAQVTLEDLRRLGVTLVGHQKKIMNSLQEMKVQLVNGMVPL

[5] = molecular target: Protein kinase C gamma type (Homo sapiens) (UniProt P05129); assay: Inhibition of human PKCg at 500 nM by HotSpot assay relative to control
[6] = molecular target: Serine/threonine-protein kinase MRCK beta (Homo sapiens) (UniProt Q9Y5S2); assay: Inhibition of human CDC42BPB at 500 nM by HotSpot assay relative to control
Chain of Serine/threonine-protein kinase MRCK beta (Homo sapiens) (Q9Y5S2 whole entry): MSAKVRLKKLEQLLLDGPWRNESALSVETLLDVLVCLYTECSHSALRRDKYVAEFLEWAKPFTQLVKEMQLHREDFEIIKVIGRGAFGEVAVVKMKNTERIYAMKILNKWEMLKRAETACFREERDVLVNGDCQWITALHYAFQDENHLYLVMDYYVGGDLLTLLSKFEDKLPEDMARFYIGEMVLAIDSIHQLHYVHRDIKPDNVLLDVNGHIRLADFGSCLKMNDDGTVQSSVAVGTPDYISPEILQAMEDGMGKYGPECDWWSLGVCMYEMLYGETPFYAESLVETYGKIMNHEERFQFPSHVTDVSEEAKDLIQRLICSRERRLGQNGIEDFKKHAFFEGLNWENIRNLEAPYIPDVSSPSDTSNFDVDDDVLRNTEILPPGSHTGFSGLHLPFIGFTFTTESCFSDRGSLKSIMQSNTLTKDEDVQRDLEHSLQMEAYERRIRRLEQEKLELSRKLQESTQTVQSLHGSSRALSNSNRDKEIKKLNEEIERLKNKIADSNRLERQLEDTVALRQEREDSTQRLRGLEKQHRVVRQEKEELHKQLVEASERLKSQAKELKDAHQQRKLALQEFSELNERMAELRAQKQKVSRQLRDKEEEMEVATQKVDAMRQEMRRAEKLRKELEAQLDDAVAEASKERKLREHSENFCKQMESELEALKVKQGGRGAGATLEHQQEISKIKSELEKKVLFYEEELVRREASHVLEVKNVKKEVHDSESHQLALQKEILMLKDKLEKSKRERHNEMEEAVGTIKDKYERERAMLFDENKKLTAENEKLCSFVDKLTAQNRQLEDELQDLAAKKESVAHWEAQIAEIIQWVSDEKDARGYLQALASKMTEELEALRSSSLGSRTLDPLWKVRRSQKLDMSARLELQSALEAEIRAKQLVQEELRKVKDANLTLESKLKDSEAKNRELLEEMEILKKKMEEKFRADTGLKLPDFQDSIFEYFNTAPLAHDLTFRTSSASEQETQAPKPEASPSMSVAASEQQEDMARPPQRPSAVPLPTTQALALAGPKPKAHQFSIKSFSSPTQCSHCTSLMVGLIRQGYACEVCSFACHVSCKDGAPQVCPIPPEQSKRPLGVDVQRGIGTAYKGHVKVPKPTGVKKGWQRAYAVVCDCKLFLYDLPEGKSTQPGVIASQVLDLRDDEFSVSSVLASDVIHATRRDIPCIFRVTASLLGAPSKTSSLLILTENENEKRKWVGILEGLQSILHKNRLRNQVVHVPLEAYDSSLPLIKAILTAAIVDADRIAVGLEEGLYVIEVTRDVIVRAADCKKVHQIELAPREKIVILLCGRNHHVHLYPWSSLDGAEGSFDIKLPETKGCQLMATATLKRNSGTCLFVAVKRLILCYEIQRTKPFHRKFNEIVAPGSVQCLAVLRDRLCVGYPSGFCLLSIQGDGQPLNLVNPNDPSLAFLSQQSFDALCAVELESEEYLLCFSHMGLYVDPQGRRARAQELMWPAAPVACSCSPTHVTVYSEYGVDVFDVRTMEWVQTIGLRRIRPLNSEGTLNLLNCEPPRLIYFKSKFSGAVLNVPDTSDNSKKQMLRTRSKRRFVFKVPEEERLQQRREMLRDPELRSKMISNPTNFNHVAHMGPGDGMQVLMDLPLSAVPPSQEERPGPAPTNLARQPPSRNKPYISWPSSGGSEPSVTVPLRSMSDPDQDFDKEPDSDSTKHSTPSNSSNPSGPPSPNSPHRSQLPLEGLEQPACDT

[7] = molecular target: T3, Serine/threonine-protein kinase Sgk1 (Homo sapiens) (UniProt O00141); assay: Inhibition of human SGK1 at 500 nM by HotSpot assay relative to control
T3 sequence (whole entry): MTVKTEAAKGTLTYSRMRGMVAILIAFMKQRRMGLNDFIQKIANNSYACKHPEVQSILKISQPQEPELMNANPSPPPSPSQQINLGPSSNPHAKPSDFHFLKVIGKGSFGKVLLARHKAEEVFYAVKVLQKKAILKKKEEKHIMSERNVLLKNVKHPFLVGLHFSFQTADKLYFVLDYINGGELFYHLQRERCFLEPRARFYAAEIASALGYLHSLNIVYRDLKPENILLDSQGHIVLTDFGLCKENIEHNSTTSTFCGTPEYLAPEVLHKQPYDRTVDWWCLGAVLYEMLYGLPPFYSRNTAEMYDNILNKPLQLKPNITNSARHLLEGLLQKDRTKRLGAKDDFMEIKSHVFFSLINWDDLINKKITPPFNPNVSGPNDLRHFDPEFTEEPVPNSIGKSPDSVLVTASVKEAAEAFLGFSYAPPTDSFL

[8] = molecular target: RAC-beta serine/threonine-protein kinase (Homo sapiens) (UniProt P31751); assay: Inhibition of human AKT2 at 500 nM by HotSpot assay relative to control
Chain of RAC-beta serine/threonine-protein kinase (Homo sapiens) (P31751 whole entry): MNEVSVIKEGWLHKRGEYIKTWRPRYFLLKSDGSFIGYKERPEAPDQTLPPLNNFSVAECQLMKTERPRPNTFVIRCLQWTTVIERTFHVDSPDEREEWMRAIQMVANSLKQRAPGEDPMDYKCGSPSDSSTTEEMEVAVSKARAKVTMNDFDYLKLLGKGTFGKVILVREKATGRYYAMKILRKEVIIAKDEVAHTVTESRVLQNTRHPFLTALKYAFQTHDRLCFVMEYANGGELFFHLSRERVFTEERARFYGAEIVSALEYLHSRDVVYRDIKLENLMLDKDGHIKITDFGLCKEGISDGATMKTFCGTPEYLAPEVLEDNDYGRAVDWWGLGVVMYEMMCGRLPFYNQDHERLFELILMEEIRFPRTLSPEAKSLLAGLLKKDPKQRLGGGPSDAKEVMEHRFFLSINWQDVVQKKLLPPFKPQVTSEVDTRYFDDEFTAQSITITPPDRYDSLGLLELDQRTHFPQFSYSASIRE

[9] = molecular target: Glycogen synthase kinase-3 alpha (Homo sapiens) (UniProt P49840); assay: Inhibition of human GSK3a at 500 nM by HotSpot assay relative to control
Chain of Glycogen synthase kinase-3 alpha (Homo sapiens) (P49840 2-483 limits assumed): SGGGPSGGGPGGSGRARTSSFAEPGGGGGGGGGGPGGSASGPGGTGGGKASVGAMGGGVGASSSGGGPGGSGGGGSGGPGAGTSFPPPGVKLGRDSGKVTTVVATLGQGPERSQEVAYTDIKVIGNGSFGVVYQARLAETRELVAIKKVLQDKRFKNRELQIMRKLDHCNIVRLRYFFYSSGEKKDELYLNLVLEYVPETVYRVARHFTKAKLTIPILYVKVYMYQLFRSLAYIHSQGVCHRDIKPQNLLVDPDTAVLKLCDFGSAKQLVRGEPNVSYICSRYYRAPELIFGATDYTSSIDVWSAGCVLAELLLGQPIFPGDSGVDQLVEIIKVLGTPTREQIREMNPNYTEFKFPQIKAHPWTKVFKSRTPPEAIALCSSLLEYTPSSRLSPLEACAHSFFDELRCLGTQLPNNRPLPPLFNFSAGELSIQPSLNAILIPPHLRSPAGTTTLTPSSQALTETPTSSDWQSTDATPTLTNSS

Row | Compound | inhibition [1] | inhibition [2] | inhibition [3] | inhibition [4] | inhibition [5] | inhibition [6] | inhibition [7] | inhibition [8] | inhibition [9]
1 | Oc1n[nH]c2nnc(-c3c(-c4ccccc4)nn4ccccc34)cc12 | 9.6% | -3.03% | Active | -0.84% | -2.44% | 4.33% | -4.65% | -5.44% | -1.18%
2 | Nc1n[nH]c2nnc(-c3c(-c4ccccc4)nn4ccccc34)cc12 | 4.73% | -3.42% | Active | -0.54% | -2.64% | 6.62% | 0.11% | 2.47% | 18.9%
